Tests used:
Assay type in all cases: cell-based, human
143B cells = assay: Isotopomer Spectral Analysis (ISA) of lipogenesis in 143B cells
Protocol: (§1) Cell Culture, Isotopic Labeling, and Hypoxia. All cell lines were cultured in Dulbecco's Modified Eagle Medium (DMEM; Mediatech) containing 10% fetal bovine serum (FBS; Invitrogen) and 100 U/ml penicillin/streptomycin (P/S; Mediatech) unless otherwise mentioned. Cell lines were obtained from ATCC unless otherwise noted. The VC3 glioma cell line was provided by Tim Lautenschlaeger (Ohio State University), MDA-MB-231 and HCT116 cell lines were provided by Ferdinando Chiaradonna (University of Milano-Bicocca), MRC5 cells were provided by Stephen Lippard (MIT), SN12C, ACHN, and 786-O cells were provided by Kevin Courtney and Lew Cantley (Harvard Medical School), and MCF10A cells were provided by Joan Brugge (Harvard Medical School), and Huh7 cells were provided by Mike Hemann (MIT). MCF10A cells were cultured in custom DMEM/F12 (Hyclone) containing 5% horse serum, 20 ng/ml EGF, 10 μg/ml insulin, 100 ng/ml cholera toxin, 0.5 mg/ml hydrocortisone, 100 U/ml penicillin/streptomycin, and labeled/unlabeled glucose and glutamine at 18 mM and 2.5 mM, respectively. […] The internal gas content was monitored using Fyrite gas analyzers (Bacharach) for CO2 and O2. […]
(§2) Metabolite Extraction and Gas Chromatography/Mass Spectrometry (GC/MS) Analysis. […] In some ISA experiments, cells were trypsinized, counted, and pelleted prior to lipid extraction as described above. […]

UMRC2 cells = assay: ISA of lipogenesis and glucose oxidation in UMRC2 cells expressing ARNT-targeting shRNAs; details: UMRC2 cells (VHL-deficient)
Protocol: as §1, §2

A549 cells = assay: Isotopomer Spectral Analysis (ISA) of lipogenesis in A549 cells
Protocol: as §1, §2

Sequence: CCGGGAGAAGTCAGATGGTTTATTTCTCGAGAAATAAACCATCTGACTTCTCTTT TT (CCGGGAGAAGTCAGATGGTTTATTTCTCGAGAAATAAACCATCTGACTTCTCTTTTT; expressed or natural sequence) [ARNT shRNA, pLKO.1 vector targeting ARNT with shRNA, obtained from Open Biosystems]
- utilization of [5-13C]glutamine for lipogenesis (143B cells): reduced
- glucose oxidation and reductive glutamine metabolism (UMRC2 cells): modulates glucose oxidation and reductive glutamine metabolism
- utilization of [5-13C]glutamine for lipogenesis (A549 cells): reduced
